Experimental data as given in patent publication US20160002310A1, “MODIFIED INGAP PEPTIDES FOR TREATING DIABETES” (THE ROYAL INSTITUTE FOR THE ADVANCEMENT OF LEARNING/MCGILL …, priority 2013, published 2016).
“Also recorded” adds a separate entry of the source. Values belong to the molecule of their own block, whether it stands above or below them. Positions of bridges follow the written chain, without caps; N, C: chain ends. Residues, ends and D or L forms follow the SMILES beside them. No end group written: not given here.

How the values were obtained:
Erk½ = experiment: Effect of pharmacological inhibitors on INGAP-induced Erk½ phosphorylation in RIN-m5F cells; format: cell-based, rat; conditions: for Effect of inhibitor on INGAP-induced Erk½ phosphorylation: inhibitor pretreatment, 10 min growth factor
Procedure: 1×10^6 cells were plated in 60 mm plates for 48 hours followed by a 24-h starvation in serum-free medium. Prior to addition of growth factors, cells were pretreated for 30-40 min with the indicated inhibitors, except for Pertussis Toxin (Ptx)(24 h pretreatment). After a 10 min treatment with growth factors, cells were placed on ice and lysed, as described in the Experimental Procedures. Blots (30 μg of proteins) were incubated with Phospho-Erk½ antibody (or with total Erk antibody after stripping) and developed using ECL reagent. Quantification of Erk phosphorylation relative to total Erk and time 0 min control (=1, shown as a dotted line) was performed as described above. (A): Inhibitors of GPCR (Ptx, 100 ng/m1), adenylate cyclase (SQ22536, 250 μM) and PKA (PKi, 100nM; H89, 1μM). (B): inhibitors of PKC (Bis, 1 μM), PI3K (Wm, 100 nM), Src(PP2, 100nM), EGFR(AG1478, 100nM) and Raf Inhibitor l(R-1, 100nM), or DMSO as a solvent (*: p<0.05).
(§1) To investigate signaling events implicated in INGAP induced proliferation, we employed specific pharmacological inhibitors of Raf (Raf inhibitor 1), PI3 K (wortmannin), PKC (Bis), PKA (H89, PKi), Adenylate cyclase (SQ22536), Src (PP2) and EGFR (AG1478). In addition, Pertussis toxin (Ptx) was used to examine whether INGAP actions were mediated by a GPCR. Effectiveness of these inhibitors was judged by Erk½ phosphorylation after 10 min of treatment with INGAP or EGF or Ex-4, and by BrdU incorporation after 24 h.

RIN-m5F cells [1] = experiment: Effect of pharmacological inhibitors on INGAP-induced BrdU incorporation in RIN-m5F cells; format: cell-based, rat; conditions: inhibitor pretreatment, 24 h
Procedure: Cells were plated in chamber slides and subjected to 30−40 min pretreatment with the indicated inhibitors prior to the addition of growth factors and incubated for 24 h. […] BrdU was added for the last three hours of treatment followed by fixation in Methanol and immunostaining for BrdU. Data are presented as a ratio of BrdU(+) cells (%) in treated versus untreated control. Results are means±S.E. of three independent experiments (*: p<0.05, †: p<0.001).
as §1

[2] = Peptide stability in RPMI-1640 medium with 25% FBS, HPLC; format: in vitro ADME; conditions: for Comparative peptide stability in FBS: 50 μM peptide; for half-life at 50 μM: bovine
Procedure: (§2) 50 μM peptides were incubated in RPMI-1640 medium with 25% FBS for the times indicated. Following ethanol precipitation of serum proteins, samples were analyzed by HPLC. To compare dynamics of peptide degradation HPLC profiles were superimposed as shown.
(§3) 50 μM INGAP-PC and INGAP 19C were incubated in RPMI-1640 medium with 25% FBS for the times indicated. Following ethanol precipitation of serum proteins, samples were analyzed by HPLC. To compare dynamics of peptide degradation, HPLC profiles were superimposed as shown.
as §2, with “Degradation profiles of INGAP-P and INGAP-19 peptides in presence of serum were determined (FIG. 20). 50” for “50”
as §3, with “Time-course studies of in vitro incubation of INGAP-PC and INGAP-19C peptides in FBS were also performed (FIG. 21). 50” for “50”

[3] = tested on: STZ (streptozotocin)-induced diabetes; parameters: species or system mice; conditions: mouse, in vivo, ip
Procedure: In this part of the study, we used a well established model of STZ (streptozotocin)-induced diabetes, resulting in a substantial destruction of beta cell mass. Previous studies conducted in our lab have shown islet neogenic effects of INGAP-peptide (15 L) and INGAP protein after the 8-week administration daily.
Referring to FIG. 42, C57BL/6 J mice (Charles River) 20-25 g, were rendered diabetic by a single injection of 150 mg/kg of STZ. The animals with blood glycemias of 15-30 mM after 7 days were used for the experiment. At 7 days, mice were randomized into 5 groups, 10 mice per group, equal representation of each glycemia level, (average glycemia per group being 24.4+0.0167 mM) and were treated with […] of one of the analogs, IP, daily for 10 weeks. Blood glycemia values were taken weekly from the tip of the tail (fasting and/or non-fasting). The weight of animals was also taken weekly.
After 10 weeks of treatment, the animals were sacrificed and the pancreata were weighed and processed for RNA extraction (still ongoing) and Immunocytochemistry.

RIN-m5F cells [4] = experiment: BrdU incorporation (proliferation) in RIN-m5F cells, 24 h; format: cell-based, rat; conditions: positive control
Procedure: (A): INGAP increased BrdU incorporation. RIN-m5F cells were treated with indicated amounts of INGAP-P or r-INGAP for 24 h in chamber slides. Exendin 4 (Ex4) and EGF were used as controls. 50 μM BrdU was added for the last three hours of treatment followed by fixation in methanol and immunostaining for BrdU. Data are presented as a ratio of BrdU(+) cells (%) in INGAP-treated to untreated control. Results are means±S.E. of three independent experiments (*: p<0.05, §: p<0.001, compared to untreated control). (B): INGAP induced phosphorylation of Erk½ in RIN-m5F. RIN-m5F cells (1×10^6) plated in 60 mm tissue culture plates were treated with INGAP for the times indicated. Blots (30 μg protein) were probed with anti-Erk½-Phospho (Thr202/Tyr204) antibody, followed by stripping/reprobing with anti-total Erk½ antibody (Cell Signaling) and quantified by densitometry, using ImageJ software. (C): Quantification of relative Erk½ phosphorylation measured as a ratio of Phospho-Erk½ to total Erk½ and shown as a Fold Change relative to the 0 min time point. […]
Cells plated in 8-well or 4-well chamber slides (5×10^4 or 1×10^5 cells per well) were treated for 24 h with INGAP, EGF or Ex 4, as described above, and 50 μM BrdU was added during the last 3 hours of treatment. […] BrdU-positive and negative nuclei were counted (total 200 per well) and the percentage of BrdU-positive nuclei was calculated (FIG. 36).

Akt = Akt phosphorylation in RIN-m5F cells; format: cell-based, rat; conditions: time course
[5] = Stability of 5-FAM labeled INGAP analogs in serum and pancreas of non-diabetic mice after IP injection; format: in vivo; conditions: 500 mg/mouse IP, 10 min to 2 h
Procedure: Prior to the start of the STZ experiments, we tested the stability of INGAP analogs in the serum of non-diabetic mice by injecting 5-FAM labeled INGAP analogs (custom made at Canpeptide, Pointe Claire) at […] IP . The analogs were FAM labeled to determine the post-injection time needed for the peptides to reach the pancreas and to potentially identify the target cells. Mice were sacrificed after 10 min, 30 min, 1 h and 2 h (three mice per group) and blood and tissue samples were collected for processing. Blood serum was precipitated with methanol (1:3) to remove serum proteins and the resulting supernatant was analyzed by HPLC to detect presence of INGAP peptides.
These experiments need to be repeated by using cryosections vs paraffin section to minimize a potential loss of the fluorescence.

Molecule: CC(C)(C)n1nc(-c2ccc(Cl)cc2)c2c(N)ncnc21 [PP2]
Effect of inhibitor on INGAP-induced Erk½ phosphorylation (Erk½): inhibited both Erk½ phosphorylation (FIG. 8B) and proliferation (FIG. 16) stimulated by r-INGAP, but not by INGAP-P | Effect of inhibitor on BrdU incorporation induced by growth factors (RIN-m5F cells [1]): inhibited both Erk½ phosphorylation (FIG. 8B) and proliferation (FIG. 16) stimulated by r-INGAP, but not by INGAP-P

Comparative peptide stability in FBS ([2]; RPMI-1640 with 25% FBS): degraded at a similar rate | half-life at 50 μM ([2]; culture medium (RPMI-1640) with 25% fetal bovine serum, culture medium, preliminary HPLC data): 4 to 6 h
Molecule: IGLHDPSHGTLPNGS [INGAP-P, N′-IGLHDPSHGTLPNGS-C′]

Molecule: COc1cc2ncnc(Nc3cccc(Cl)c3)c2cc1OC [AG1478]
Effect of inhibitor on INGAP-induced Erk½ phosphorylation (Erk½): not affected

half-life ([2]; buffer, culture medium, preliminary HPLC data): 4 to 6 h | Losses of animals in group [3]: no losses
Molecule: CC[C@H](C)[C@@H]1NC(=O)[C@@H](N)CSSC[C@@H](C(=O)O)NC(=O)[C@H](CO)NC(=O)CNC(=O)[C@H](CC(N)=O)NC(=O)[C@@H]2CCCN2C(=O)[C@H](CC(C)C)NC(=O)[C@H]([C@@H](C)O)NC(=O)CNC(=O)[C@H](Cc2c[nH]cn2)NC(=O)[C@H](CO)NC(=O)[C@@H]2CCCN2C(=O)[C@H](CC(=O)O)NC(=O)[C@H](Cc2c[nH]cn2)NC(=O)[C@H](CC(C)C)NC(=O)CNC1=O [INGAP-PC, N′-CIGLHDPSHGTLPNGSC-C′] (H-CIGLHDPSHGTLPNGSC-OH; disulfide 1-17)

Molecule: EGF: positive control growth factor, signals through a classical RTK pathway
BrdU incorporation, increase compared to negative control (RIN-m5F cells [4]; 10 ng/ml): 1.49 × | Akt phosphorylation (Akt): early activation of Akt

Molecule: Pertussis toxin [Ptx]
Inhibition of INGAP-induced activation of Erk½ (Erk½; 24 h exposure to inhibitor, 10 min INGAP): 40%

Molecule: O=S(=O)(NCCNC/C=C/c1ccc(Br)cc1)c1cccc2cnccc12 [H89]
Effect of inhibitor on BrdU incorporation induced by growth factors (RIN-m5F cells [1]): reduced BrdU incorporation in rINGAP treated cells

Comparative peptide stability in FBS ([2]; RPMI-1640 with 25% FBS): no advantage of INGAP-19 over INGAP-P | half-life at 50 μM ([2]; fetal bovine serum (25%) in RPMI-1640 culture medium, culture medium, preliminary HPLC data): 4 to 6 h | Presence of peptide in blood serum after injection (HPLC) [5]: undetectable at 1 h
Molecule: IWIGLHDPSHGTLPNGSGW [INGAP-19, N′-IWIGLHDPSHGTLPNGSGW-C′]

Molecule: Nc1ncnc2c1ncn2C1CCCO1 (stereo not drawn) [SQ22536]
Effect of inhibitor on INGAP-induced Erk½ phosphorylation (Erk½): slightly increased it

Degradation in presence of serum ([2]; 48 h, 50 μM, RPMI-1640 with 25% FBS): no degradation | Time stable in culture medium ([2]; culture medium, preliminary HPLC data): up to 48 h | Presence of peptide in blood serum after injection (HPLC) [5]: still detectable at 2 h | Losses of animals in group [3]: 1
Molecule: CC[C@H](C)[C@@H]1NC(=O)[C@H](Cc2c[nH]c3ccccc23)NC(=O)[C@H]([C@@H](C)CC)NC(=O)[C@@H](N)CSSC[C@@H](C(=O)O)NC(=O)[C@H](Cc2c[nH]c3ccccc23)NC(=O)CNC(=O)[C@H](CO)NC(=O)CNC(=O)[C@H](CC(N)=O)NC(=O)[C@@H]2CCCN2C(=O)[C@H](CC(C)C)NC(=O)[C@H]([C@@H](C)O)NC(=O)CNC(=O)[C@H](Cc2c[nH]cn2)NC(=O)[C@H](CO)NC(=O)[C@@H]2CCCN2C(=O)[C@H](CC(=O)O)NC(=O)[C@H](Cc2c[nH]cn2)NC(=O)[C@H](CC(C)C)NC(=O)CNC1=O [INGAP-19C] (H-CIWIGLHDPSHGTLPNGSGWC-OH; disulfide 1-21)
Comparative peptide stability in FBS ([2]; RPMI-1640 with 25% FBS): highest stability; also recorded: more stable than linear 15-mer (INGAP-P) or 19-mer (INGAP-19) peptides

Molecule: Exendin 4
BrdU incorporation, increase compared to negative control (RIN-m5F cells [4]; 10 nM): 1.56 × | Akt phosphorylation (Akt): strongest activation of Akt

Molecule: COc1cccc(-c2cc(=O)c3ccccc3o2)c1N [PD98059]
Effect of inhibitor on INGAP-induced Erk½ phosphorylation (Erk½): inhibition | Effect of inhibitor on BrdU incorporation induced by growth factors (RIN-m5F cells [1]): inhibition
